Columns and labels:
[1] = Aqueous solubility of the compound; conditions: aqueous medium (not further specified)
D(2) dopamine receptor = D(2) dopamine receptor (Rattus norvegicus, UniProt P61169); test: Displacement of [3H]Spiperone from D2 receptor in Sprague-Dawley rat caudate-putamen; assay type: tissue-based
D(1A) dopamine receptor = D(1A) dopamine receptor (Rattus norvegicus, UniProt P18901); test: Displacement of [3H]SCH23390 from D1-like receptor in Sprague-Dawley rat striatum
D(1A) dopamine receptor, sequence (P18901 whole entry): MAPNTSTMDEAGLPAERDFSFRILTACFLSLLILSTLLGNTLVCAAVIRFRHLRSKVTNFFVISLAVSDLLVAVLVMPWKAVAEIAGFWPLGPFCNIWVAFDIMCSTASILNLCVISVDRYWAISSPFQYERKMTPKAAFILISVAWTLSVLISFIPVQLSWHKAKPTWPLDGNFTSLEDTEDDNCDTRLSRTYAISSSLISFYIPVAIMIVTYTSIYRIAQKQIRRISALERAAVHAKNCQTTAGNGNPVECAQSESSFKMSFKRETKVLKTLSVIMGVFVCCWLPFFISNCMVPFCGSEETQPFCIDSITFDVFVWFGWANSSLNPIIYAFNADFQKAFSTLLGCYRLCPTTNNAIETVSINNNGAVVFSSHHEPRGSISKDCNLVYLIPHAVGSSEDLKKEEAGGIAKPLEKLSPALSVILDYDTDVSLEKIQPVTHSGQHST

D(2) dopamine receptor, sequence (P61169 whole entry): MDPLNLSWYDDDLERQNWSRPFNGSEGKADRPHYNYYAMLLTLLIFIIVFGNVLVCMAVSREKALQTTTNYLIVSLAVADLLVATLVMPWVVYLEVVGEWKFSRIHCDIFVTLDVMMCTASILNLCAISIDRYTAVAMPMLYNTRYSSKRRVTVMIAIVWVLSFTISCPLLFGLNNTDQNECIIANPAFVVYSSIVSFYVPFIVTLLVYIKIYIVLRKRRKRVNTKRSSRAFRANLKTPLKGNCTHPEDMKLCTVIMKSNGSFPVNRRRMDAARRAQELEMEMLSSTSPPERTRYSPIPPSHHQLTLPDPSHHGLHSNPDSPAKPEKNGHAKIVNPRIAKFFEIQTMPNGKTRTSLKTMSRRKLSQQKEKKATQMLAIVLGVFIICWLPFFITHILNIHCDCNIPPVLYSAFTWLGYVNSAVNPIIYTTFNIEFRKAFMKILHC

Compound | solubility [1] | Ki (D(2) dopamine receptor) | Ki (D(1A) dopamine receptor)
CCCN(CC[C@H]1CC[C@H](NC(=O)c2ccc3ccccc3c2)CC1)[C@H]1CCc2nc(N)sc2C1.Cl.Cl | 100 mg/mL |  | 
CCCCN(CC[C@H]1CC[C@H](NC(=O)c2ccc3ccccc3c2)CC1)[C@H]1CCc2nc(N)sc2C1 |  |  | 5.4 µM
Nc1nc2c(s1)C[C@@H](NCC[C@H]1CC[C@H](NC(=O)c3ccc4ccccc4c3)CC1)CC2 |  |  | 64 µM
COc1ccc2c(c1)CC[C@@H]1CN(CC[C@H]3CC[C@H](NC(=O)c4ccc5ccccc5c4)CC3)CCN21 |  | > 10 µM | > 50 µM

More lines, now with the values ahead:

solubility [1] | Ki (D(2) dopamine receptor) | Ki (D(1A) dopamine receptor) | Compound
 | 0.33 µM |  | CCCN(CC[C@H]1CC[C@H](NC(=O)/C=C/c2ccccc2)CC1)[C@H]1CCc2nc(N)sc2C1
 |  | 13 µM | CC(C)CCN(CC[C@H]1CC[C@H](NC(=O)c2ccc3ccccc3c2)CC1)[C@H]1CCc2nc(N)sc2C1
 |  | > 100 µM | CCCN[C@H]1CCc2nc(N)sc2C1 [PRAMIPEXOLE]

Source: ChEMBL document CHEMBL1140107, “Design, synthesis, and evaluation of potent and selective ligands for the dopamine 3 (D3) receptor with a novel in vivo behavioral profile” (J Med Chem, 2008)
